Structures can show the parent of a compound that is named as a salt.
Columns and labels:
NPFF2 = biological target: T1, NPFF2 (Homo sapiens, UniProt Q9Y5X5); assay: Receptor Selection and Amplification Technology (R-SAT) functional assay, NPFF2; format: cell-based; conditions: R-SAT, Table 1; for Emax: Efficacy is relative to endogenous ligand, read-out: NPFF2 % Efficacy; for EC50: NA = No activity detectable at the highest dose tested (20 μM), read-out: NPFF2 pEC50 (converted)
T1 construct: expressed in transfected cells; host or cells: NIH3T3
Method: (§1) Briefly, NIH3T3 cells were grown in 96 well tissue culture plates to 70-80% confluence. Cells were transfected for 16-20 h h with plasmid DNAs using Polyfect (Qiagen Inc.) as per manufacturer's protocols. R-SAT's were generally performed with 40 ng/well of receptor and 20 ng/well of β-galactosidase plasmid DNA. All receptor and G-protein constructs used were in the pSI-derived mammalian expression vector (Promega Inc) as described previously. […] For large-scale transfections, cells were transfected for 16-20 h, then trypsinized and frozen in DMSO. Frozen cells were later thawed, plated at ˜20,000 cells per well of a 96 half-area well plate that contained drug. With both methods, cells were then grown in a humidified atmosphere with 5% ambient CO2 for five days. Media was then removed from the plates and marker gene activity was measured by the addition of the β-galactosidase substrate o-nitrophenyl β-D-galactopyranoside (ONPG, in PBS with 0.5% NP-40). The resulting colorimetric reaction was measured in a spectrophotometric plate reader (Titertek Inc.) at 420 nm. All data were analyzed using the computer program XLFit (IDBSm).
(§2) R-SAT assay was conducted as set forth in […]

NPFF1 = NPFF1 (Homo sapiens, UniProt Q9GZQ6); assay: Receptor Selection and Amplification Technology (R-SAT) functional assay, NPFF1; format: cell-based; parameters: expressed in transfected cells; host or cells: NIH3T3; conditions: R-SAT, Table 1; for Emax: Efficacy is relative to endogenous ligand, read-out: NPFF1 % Efficacy; for EC50: NA = No activity detectable at the highest dose tested (20 μM), read-out: NPFF1 pEC50 (converted)
Method: as §1, §2

T1 sequence (Q9Y5X5 103-522): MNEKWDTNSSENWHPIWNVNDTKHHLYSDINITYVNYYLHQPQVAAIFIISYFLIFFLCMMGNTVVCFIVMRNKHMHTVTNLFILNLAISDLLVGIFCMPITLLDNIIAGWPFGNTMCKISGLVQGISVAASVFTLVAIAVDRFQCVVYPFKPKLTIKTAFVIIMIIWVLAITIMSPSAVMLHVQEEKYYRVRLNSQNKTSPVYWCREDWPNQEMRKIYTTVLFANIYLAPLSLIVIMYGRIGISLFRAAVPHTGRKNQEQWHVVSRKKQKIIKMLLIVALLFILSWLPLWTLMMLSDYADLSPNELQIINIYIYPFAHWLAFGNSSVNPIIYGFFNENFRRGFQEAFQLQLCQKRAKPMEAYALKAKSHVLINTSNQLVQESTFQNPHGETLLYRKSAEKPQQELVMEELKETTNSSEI
Chain of NPFF1 (Q9GZQ6 whole entry, species assumed): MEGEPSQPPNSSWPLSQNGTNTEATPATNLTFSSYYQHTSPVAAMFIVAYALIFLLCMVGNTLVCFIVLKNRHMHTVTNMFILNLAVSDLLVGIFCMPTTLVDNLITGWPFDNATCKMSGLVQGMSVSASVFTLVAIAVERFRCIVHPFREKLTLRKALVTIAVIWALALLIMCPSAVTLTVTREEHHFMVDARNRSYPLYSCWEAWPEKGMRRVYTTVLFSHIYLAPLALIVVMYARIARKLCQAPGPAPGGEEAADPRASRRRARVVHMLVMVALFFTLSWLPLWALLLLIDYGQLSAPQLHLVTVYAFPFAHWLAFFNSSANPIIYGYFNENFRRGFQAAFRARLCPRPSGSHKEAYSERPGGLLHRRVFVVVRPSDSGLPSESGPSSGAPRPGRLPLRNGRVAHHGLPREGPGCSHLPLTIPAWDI

Row | Compound | Emax (NPFF2) [%] | EC50 (NPFF2) [nM] | Emax (NPFF1) [%] | EC50 (NPFF1) [nM]
1 | N=C(N)NN=Cc1ccc(C(F)(F)F)c(F)c1 [Compound 2063, 1-[3-Fluoro-4-(trifluoromethyl)benzylideneamino]guanidine Hydrochloride] | 78 | 2510 | 36 | 3160
2 | N=C(N)NN=Cc1cccc(C(F)(F)F)c1F [Compound 2065, 1-[2-Fluoro-3-(trifluoromethyl)benzylideneamino]guanidine Hydrochloride] | 45 | 3160 | 9 | –
3 | N=C(N)NN=Cc1ccc(F)c(C(F)(F)F)c1 [Compound 2068, 1-[4-Fluoro-3-(trifluoromethyl)benzylideneamino]guanidine Hydrochloride] | 61 | 1000 | 13 | –
4 | N=C(N)NN=Cc1cc(C(F)(F)F)ccc1Cl [Compound 2069, 1-[2-Chloro-5-(trifluoromethyl)benzylideneamino]guanidine Hydrochloride] | 40 | 3160 | 8 | –
5 | N=C(N)NN=Cc1ccc(F)c2ccccc12 [Compound 2072, 1-[(4-Fluoro-1-naphthalen-1-yl)methylideneamino]guanidine Hydrochloride] | 50 | 2000 | 11 | –
6 | COc1ccc(C=NNC(=N)N)cc1C(F)(F)F [Compound 2073, 1-[4-Methoxy-3-(trifluoromethyl)benzylideneamino]guanidine Hydrochloride] | 51 | 1580 | 13 | –
7 | COc1ccc(C(F)(F)F)cc1C=NNC(=N)N [Compound 2074, 1-[2-Methoxy-5-(trifluoromethyl)benzylideneamino]guanidine Hydrochloride] | 77 | 2510 | 19 | 10000
8 | N=C(N)NN=Cc1ccc2ccccc2c1 [Compound 2075, 1-[Naphthalen-2-yl-methylideneamino]guanidine Hydrochloride] | 65 | 2510 | 24 | 1260
9 | Cc1ccc(C=NNC(=N)N)c(C)c1 [Compound 2077, 1-[2,4-Dimethylbenzylideneamino]guanidine Hydrochloride] | 61 | 3160 | 21 | 398
10 | COc1ccc(OC)c(C=NNC(=N)N)c1 [Compound 3005, 1-(2,5-Dimethoxybenzylideneamino)guanidine Hydrochloride] | 59 | 7940 | 3 | –
11 | COc1cccc(C=NNC(=N)N)c1OCc1ccccc1 [Compound 3006, 1-(2-Benzyloxy-3-methoxybenzylideneamino)guanidine Hydrochloride] | 47 | 794 | 14 | –
12 | COc1ccc2ccccc2c1C=NNC(=N)N [Compound 3007, 1-[1-(2-Methoxy-naphthalen-1-yl)methylideneamino]guanidine Hydrochloride] | 84 | 6310 | 24 | 7940
13 | N=C(N)NN=Cc1cc2c(cc1Br)OCO2 [Compound 3015, 1-[(6-Bromobenzo[1,3]dioxol-5-yl)methylideneamino]guanidine Hydrochloride] | 70 | 1260 | 26 | 1000
14 | Cc1cccc(C=NNC(=N)N)c1 [Compound 3018, 1-(3-Methylbenzylideneamino)guanidine Hydrochloride] | 54 | 5010 | 13 | –
15 | Cc1ccc(C=NNC(=N)N)cc1C [Compound 3019, 1-(3,4-Dimethylbenzylideneamino)guanidine Hydrochloride] | 86 | 2510 | 12 | –
16 | CCCCCc1ccc(C=NNC(=N)N)cc1 [Compound 3022, 1-(4-n-pentylbenzylideneamino)guanidine Hydrochloride] | 55 | 1260 | 13 | –
17 | CCCCCCc1ccc(C(C)=NNC(=N)N)cc1 [Compound 3023, Hydrochloride] | 22 | 1260 | 29 | 501
18 | CC(=NNC(=N)N)c1cc(C(F)(F)F)cc(C(F)(F)F)c1 [Compound 3028, 1-{1-[3,5-Bis-(trifluoromethyl)phenyl]ethylideneamino}guanidine Hydrochloride] | 23 | 1260 | 9 | –
19 | CCN(CCO)c1ccc(C=NNC(=N)N)c(C)c1 [Compound 3036, 1-{4-[Ethyl-(2-hydroxyethyl)amino]-2-methylbenzylideneamino}guanidine Hydrochloride] | 82 | 631 | 84 | 1260
20 | CCN(CC)c1ccc(C=NNC(=N)N)c(O)c1 [Compound 3037, 1-(4-Diethylamino-2-hydroxybenzylideneamino)guanidine Hydrochloride] | 59 | 3160 | 39 | 794
21 | CCN(CC)c1ccc(C=NNC(=N)N)cc1 [Compound 3038, 1-(4-Diethylaminobenzylideneamino)guanidine Hydrochloride] | 65 | 1260 | 72 | 1000
22 | CN(CCC#N)c1ccc(C=NNC(=N)N)cc1 [Compound 3040, 1-{4-[Methyl-(2-cyanoethyl)amino]benzylideneamino}guanidine Hydrochloride] | 70 | 2000 | 48 | 1580
23 | CCN(CC)c1ccc(C=NNC(=N)N)c(OC)c1 [Compound 3043, 1-(2-Methoxy-4-N,N-diethylaminobenzylideneamino)guanidine Hydrochloride] | 92 | 1000 | 60 | 1000
24 | N=C(N)NN=Cc1ccc(C(F)(F)F)cc1 [Compound 4002, 1-[(4-Trifluoromethyl)benzylideneamino]guanidine Hydrochloride] | 80 | 2510 | 20 | 3980

Further lines, results first:

Row | Emax (NPFF2) [%] | EC50 (NPFF2) [nM] | Emax (NPFF1) [%] | EC50 (NPFF1) [nM] | Compound
25 | 63 | 251 | 0 | – | CC(=NNC(=N)N)c1ccc(Cl)c(Cl)c1 [Compound 3012, 1-[1-(3,4-Dichlorophenyl)ethylideneamino]guanidine Hydrochloride]
26 | 74 | 1580 | 16 | – | CC(=NNC(=N)N)c1ccc(Br)cc1 [Compound 3016, 1-[1-(4-Bromophenyl)ethylideneamino]guanidine Hydrochloride]
27 | 80 | 6310 | 17 | – | CC(=NNC(=N)N)c1cccc(C)c1 [Compound 3017, 1-[1-(3-Methylphenyl)ethylideneamino]guanidine Hydrochloride]
28 | 115 | 1260 | 41 | 3980 | CCc1ccc(C(C)=NNC(=N)N)cc1 [Compound 3020, 1-[1-(4-Ethylphenyl)ethylideneamino]guanidine Hydrochloride]
29 | 70 | 2510 | 32 | 10000 | CC(=NNC(=N)N)c1ccc(C)c(C)c1 [Compound 3021, 1-[1-(3,4-Dimethylphenyl)ethylideneamino]guanidine Hydrochloride]
30 | 99 | 398 | 41 | 1000 | CC(=NNC(=N)N)c1ccc2c(c1)CCCC2 [Compound 3024, 1-[1-(5,6,7,8-Tetrahydronaphthalen-2-yl)ethylideneamino]guanidine Hydrochloride]
31 | 101 | 2000 | 28 | 3160 | CCc1ccc(C=NNC(=N)N)cc1 [Compound 3025, 1-(4-Ethylbenzylideneamino)guanidine Hydrochloride]
32 | 63 | 1260 | 5 | – | CC(=NNC(=N)N)c1cccc(C(F)(F)F)c1 [Compound 3027, 1-{1-[3-(Trifluoromethyl)phenyl]ethylideneamino}guanidine Hydrochloride]
33 | 78 | 3980 | 36 | 12600 | CC(=NNC(=N)N)c1ccc2c(c1)OCO2 [Compound 3032, 1-[1-(Benzo[1,3]dioxol-5-yl)ethylideneamino]guanidine Hydrochloride]
34 | 46 | 501 | 43 | 398 | CC(=NNC(=N)N)c1ccc(N2CCCCC2)cc1 [Compound 3039, 1-[1-(4-Piperidin-1-yl-phenyl)ethylideneamino]guanidine Hydrochloride]
35 | 53 | 10000 | 30 | 10000 | CN(CCO)c1ccc(C=NNC(=N)N)cc1 [Compound 3041, 1-{4-[Methyl-(2-hydroxyethyl)amino]benzylideneamino}guanidine Hydrochloride]

Source: patent US20050136444A1 (priority 2003, published 2005)
